The text below walks through data of patent publication US20100048699A1, “CHEMICAL COMPOUNDS” (SYNGENTA CROP PROTECTION, INC., priority 2006, published 2010).

Assay [1] concerns Myzus persicae. The assay is described as follows: Myzus persicae (green peach aphid) pea seedling root uptake test. To be noted: 144 h, read-out: control of Myzus persicae.
Assay [2] has as its system Myzus persicae. The experiment in a line: Myzus persicae (green peach aphid) sunflower leaf disc spray test. The conditions noted are these: foliar, 144 h, read-out: control of Myzus persicae.
The test system of a further assay is Tetranychus urticae. The assay is described as follows: Tetranychus urticae (two-spotted spider mite) bean leaf disc spray test. The conditions noted are these: foliar, 192 h, read-out: control of Tetranychus urticae.

For `COC(=O)OCCNC(=S)NC1CCc2c(F)cccc21` (stereo not shown) [Compound 3.038, carbonic acid 2-[3(4-fluoro-indan-1-yl)-thioureido]-ethyl methylester], in the assay on Myzus persicae [1], the pest or weed control at 24 ppm is at least 80%. The pest or weed control at 200 ppm in the assay on Myzus persicae [2] and in the assay on Tetranychus urticae was at least 80% throughout.
In the case of `O=C(OCCNC(=S)NC1CCc2c(F)cccc21)N1CCCCC1` (stereo not shown) [Compound 11.001], the pest or weed control at 200 ppm with Myzus persicae [2] and in the assay on Tetranychus urticae was at least 80% throughout.
As to `O=C(OCCNC(=S)NC1CCc2c(F)cccc21)c1ccc(F)cc1` (stereo not shown) [Compound 11.003], in the assay with Myzus persicae [1], the pest or weed control at 24 ppm was at least 80%. In addition, the pest or weed control at 200 ppm in the assay with Myzus persicae [2] and in the assay with Tetranychus urticae was at least 80% throughout.
For the compound `N#Cc1ccc(C(=O)OCCNC(=S)NC2CCc3c(F)cccc32)cc1` (stereo not shown) [Compound 11.005], in the assay on Myzus persicae [1], the pest or weed control at 24 ppm was at least 80%. In addition, the pest or weed control at 200 ppm with Myzus persicae [2] and in the assay with Tetranychus urticae was at least 80% each time.
As for `O=C(/C=C/c1ccccc1)OCCNC(=S)NC1CCc2c(F)cccc21` (stereo not shown) [Compound 11.006], in the assay with Myzus persicae [1], the pest or weed control at 24 ppm is at least 80%. For the same compound, the pest or weed control at 200 ppm in the assay with Myzus persicae [2] and in the assay with Tetranychus urticae was at least 80% throughout.
For the compound `COc1ccccc1C(=O)OCCNC(=S)NC1CCc2c(F)cccc21` (stereo not shown) [Compound 11.007], the pest or weed control at 24 ppm with Myzus persicae [1] is at least 80%. The pest or weed control at 200 ppm in the assay with Myzus persicae [2] and in the assay with Tetranychus urticae was at least 80% each time.
For the compound `COc1ccc(C(=O)OCCNC(=S)NC2CCc3c(F)cccc32)cc1` (stereo not shown) [Compound 11.009], the pest or weed control at 24 ppm with Myzus persicae [1] was at least 80%. The pest or weed control at 200 ppm in the assay with Myzus persicae [2] and in the assay with Tetranychus urticae was at least 80% each time.
For the compound `O=C(OCCNC(=S)NC1CCc2c(F)cccc21)c1ccc(Cl)cc1` (stereo not shown) [Compound 11.010], in the assay on Myzus persicae [1], the pest or weed control at 24 ppm is at least 80%. Further, the pest or weed control at 200 ppm in the assay on Myzus persicae [2] and with Tetranychus urticae was at least 80% each time.
`O=C(OCCNC(=S)NC1CCc2c(F)cccc21)c1cccc(Cl)c1` (stereo not shown) [Compound 11.011]: the pest or weed control at 24 ppm with Myzus persicae [1] was at least 80%. In addition, the pest or weed control at 200 ppm in the assay with Myzus persicae [2] and in the assay on Tetranychus urticae was at least 80% throughout.
Take `O=C(OCCNC(=S)NC1CCc2c(F)cccc21)c1ccccc1Cl` (stereo not shown) [Compound 11.012]: the pest or weed control at 24 ppm with Myzus persicae [1] was at least 80%. In addition, the pest or weed control at 200 ppm in the assay with Myzus persicae [2] and in the assay with Tetranychus urticae was at least 80% throughout.
For `O=C(OCCNC(=S)NC1CCc2c(F)cccc21)c1cc(F)ccc1F` (stereo not shown) [Compound 11.013], the pest or weed control at 24 ppm in the assay on Myzus persicae [1] is at least 80%. The pest or weed control at 200 ppm in the assay with Myzus persicae [2] and in the assay with Tetranychus urticae was at least 80% in each case.
For `O=C(OCCNC(=S)NC1CCc2c(F)cccc21)c1ccc(F)cc1F` (stereo not shown) [Compound 11.014], the pest or weed control at 24 ppm in the assay with Myzus persicae [1] was at least 80%. Also, the pest or weed control at 200 ppm in the assay with Myzus persicae [2] and with Tetranychus urticae was at least 80% each time.
`CN(C)c1ccc(C(=O)OCCNC(=S)NC2CCc3c(F)cccc32)cc1` (stereo not shown) [Compound 11.015]: the pest or weed control at 200 ppm with Myzus persicae [2] was at least 80%.
Take `COc1ccc(CC(=O)OCCNC(=S)NC2CCc3c(F)cccc32)cc1` (stereo not shown) [Compound 11.016]: in the assay with Myzus persicae [1], the pest or weed control at 24 ppm was at least 80%. The pest or weed control at 200 ppm with Myzus persicae [2] and in the assay on Tetranychus urticae was at least 80% in each case.
In the case of `O=C(Cc1ccc(Cl)cc1)OCCNC(=S)NC1CCc2c(F)cccc21` (stereo not shown) [Compound 11.018], in the assay with Myzus persicae [1], the pest or weed control at 24 ppm is at least 80%. For the same compound, the pest or weed control at 200 ppm with Myzus persicae [2] and in the assay with Tetranychus urticae was at least 80% each time.
Consider `O=C(OCCNC(=S)NC1CCc2c(F)cccc21)c1ccccc1C(F)(F)F` (stereo not shown) [Compound 11.023], for which, in the assay on Myzus persicae [1], the pest or weed control at 24 ppm was at least 80%. Besides, the pest or weed control at 200 ppm with Myzus persicae [2] and in the assay on Tetranychus urticae was at least 80% each time.
Turning to `O=C(OCCNC(=S)NC1CCc2c(F)cccc21)c1ccc(C(F)(F)F)cc1` (stereo not shown) [Compound 11.024], the pest or weed control at 24 ppm in the assay on Myzus persicae [1] was at least 80%. Besides, the pest or weed control at 200 ppm in the assay on Myzus persicae [2] and in the assay on Tetranychus urticae was at least 80% in each case.
For the compound `O=C(/C=C/c1ccc([N+](=O)[O-])cc1)OCCNC(=S)NC1CCc2c(F)cccc21` (stereo not shown) [Compound 11.027], the pest or weed control at 200 ppm in the assay with Myzus persicae [2] was at least 80%.
As for `COc1ccc(CC(=O)OCCNC(=S)NC2CCc3c(F)cccc32)cc1OC` (stereo not shown) [Compound 11.028], in the assay with Myzus persicae [1], the pest or weed control at 24 ppm is at least 80%. Moreover, the pest or weed control at 200 ppm in the assay with Myzus persicae [2] and in the assay with Tetranychus urticae was at least 80% each time.
As to `O=C(OCCNC(=S)NC1CCc2c(F)cccc21)c1cccc2c1OC(F)(F)O2` (stereo not shown) [Compound 11.031], the pest or weed control at 24 ppm in the assay on Myzus persicae [1] is at least 80%. Also, in the assay on Myzus persicae [2], the pest or weed control at 200 ppm was at least 80%.
Consider `O=C(OCCNC(=S)NC1CCc2c(F)cccc21)c1ccc(F)cc1C(F)(F)F` (stereo not shown) [Compound 11.034], for which, in the assay with Myzus persicae [1], the pest or weed control at 24 ppm is at least 80%. The pest or weed control at 200 ppm in the assay on Myzus persicae [2] is at least 80%.
As for `O=C(OCCNC(=S)NC1CCc2c(F)cccc21)N(c1ccccc1)c1ccccc1` (stereo not shown) [Compound 11.039], the pest or weed control at 200 ppm with Myzus persicae [2] is at least 80%.
For the compound `O=C(OCc1ccccc1C(=O)OCCNC(=S)NC1CCc2c(F)cccc21)c1ccccc1` (stereo not shown) [Compound 11.041], the pest or weed control at 200 ppm in the assay on Myzus persicae [2] and in the assay on Tetranychus urticae was at least 80% in each case.
As for `Cc1ccc(-n2c(=O)cc(C(F)(F)F)n(C)c2=O)cc1C(=O)OCCNC(=S)NC1CCc2c(F)cccc21` (stereo not shown) [Compound 11.043], the pest or weed control at 200 ppm with Myzus persicae [2] and with Tetranychus urticae was at least 80% in each case.
Consider `Cc1oc(C(C)(C)C)cc1C(=O)OCCNC(=S)NC1CCc2c(F)cccc21` (stereo not shown) [Compound 11.045], for which the pest or weed control at 24 ppm in the assay with Myzus persicae [1] was at least 80%. Also, in the assay on Myzus persicae [2], the pest or weed control at 200 ppm is at least 80%.
With `Cc1c(S(=O)(=O)c2ccc(Cl)cc2)csc1C(=O)OCCNC(=S)NC1CCc2c(F)cccc21` (stereo not shown) [Compound 11.046], the pest or weed control at 200 ppm in the assay with Myzus persicae [2] and with Tetranychus urticae was at least 80% in each case.
For `O=C(OCCNC(=S)NC1CCc2c(F)cccc21)c1cncc(Br)c1` (stereo not shown) [Compound 11.049], the pest or weed control at 24 ppm with Myzus persicae [1] was at least 80%. Also, in the assay on Myzus persicae [2], the pest or weed control at 200 ppm was at least 80%.
For `O=C(OCCNC(=S)NC1CCc2c(F)cccc21)c1cc(C(F)(F)F)ccc1F` (stereo not shown) [Compound 11.052], the pest or weed control at 200 ppm with Myzus persicae [2] and in the assay with Tetranychus urticae was at least 80% in each case.
As for `O=C(OCCNC(=S)NC1CCc2c(F)cccc21)c1ccccc1I` (stereo not shown) [Compound 11.054], in the assay on Myzus persicae [1], the pest or weed control at 24 ppm is at least 80%. For the same compound, the pest or weed control at 200 ppm with Myzus persicae [2] is at least 80%.
As for `O=C(OCCNC(=S)NC1CCc2c(F)cccc21)c1ccc(SC(F)(F)C(F)(F)F)cc1` (stereo not shown) [Compound 11.064], the pest or weed control at 200 ppm with Myzus persicae [2] and with Tetranychus urticae was at least 80% throughout.
Take `Cc1ccsc1C(=O)OCCNC(=S)NC1CCc2c(F)cccc21` (stereo not shown) [Compound 11.067]: the pest or weed control at 200 ppm in the assay with Myzus persicae [2] and in the assay on Tetranychus urticae was at least 80% throughout.
`O=C(OCCNC(=S)NC1CCc2c(F)cccc21)c1cc(Cl)sc1Cl` (stereo not shown) [Compound 11.068]: the pest or weed control at 200 ppm with Myzus persicae [2] and with Tetranychus urticae was at least 80% each time.
Consider `Cc1nn(-c2ccccc2)nc1C(=O)OCCNC(=S)NC1CCc2c(F)cccc21` (stereo not shown) [Compound 11.072], for which the pest or weed control at 200 ppm with Myzus persicae [2] and with Tetranychus urticae was at least 80% each time.
